{"source": "patent US8653051B2", "about": "“Use of 3-alpha-androstanediol in combination with a PDE5 inhibitor, in the treatment of sexual dysfunction” (Emotional Brain B.V., priority 2006, dated 2014)", "origin": "cited, not measured here", "conditions": "typical value after administration"}
{"smiles": "CCCc1nc(C)c2c(=O)nc(-c3cc(S(=O)(=O)N4CCN(CC)CC4)ccc3OCC)[nH]n12.Cl", "note": "[vardenafil, piperazine, 1-[[3-(1,4-dihydro-5-methyl-4-oxo-7-propylimidazo[5,1-f][1,2,4]triazin-2-yl)-4-ethoxyphenyl]sulfonyl]-4-ethyl-, monohydrochloride]", "values": [{"measurement": "time to reach peak plasma concentration after administration", "value": "about 1 hour"}]}
